The source made the active and inactive calls. No cut-off for these calls is given here.
Experiments:
[1] = Cell cycle arrest in human SW620 cells assessed as accumulation at S phase at 10 uM after 24 hrs by propidium iodide staining-based flow cytometric analysis (reference value: 13.9%); assay type: functional; conditions: SW-620
[2] = Cell cycle arrest in human SW620 cells assessed as accumulation at G2/M phase at 1 uM after 24 hrs by propidium iodide staining-based flow cytometric analysis (reference value: 17.4%); assay type: functional; conditions: SW-620
[3] = target: T1, Tyrosine-protein kinase JAK1 (Homo sapiens, UniProt P23458); assay: Inhibition of JAK1 in human NCI-H1975 cells assessed as reduction in STAT3 phosphorylation after 2 hrs; assay type: cell-based
[4] = Cell cycle arrest in human SW620 cells assessed as accumulation at Sub G1 phase at 1 uM after 24 hrs by propidium iodide staining-based flow cytometric analysis (reference value: 1.6%); assay type: functional; conditions: SW-620
[5] = target: T2, Tyrosine-protein kinase JAK2 (Homo sapiens, UniProt O60674); assay: Inhibition of JAK2 in human HEL 92.1.7 cells assessed as reduction in STAT5 phosphorylation after 2 hrs by Western blot analysis; assay type: cell-based
[6] = target: Cyclin-dependent kinase 2/cyclin E1 (Homo sapiens, UniProt P24941); assay: Inhibition of N-terminal 6His-tagged human recombinant full length CDK2 (1 to 304 residues)/Cyclin E1 (1 to 410 residues) expressed in insect cells using FL-Ahx-QSPKKG-CONH2 as substrate by microfluidic capillary electrophoresis method
[7] = tested on: Mus musculus; assay: Inhibition of JAK1-mediated STAT3 phosphorylation in human NCI-H1975 cells xenografted in NCr nude mouse at 200 mg/kg, po administered as single dose after 8 hrs by Western blot analysis; assay type: functional, organism-based
[8] = target: T1, Tyrosine-protein kinase JAK1; assay: Inhibition of N-terminal GST-fused human recombinant JAK1 (866 to 1154 residues) expressed in insect cells using FITC-C6-KKHTDDGYMPMSPGVA-NH2 as substrate by microfluidic capillary electrophoresis method
[9] = Cell cycle arrest in human SW620 cells assessed as multi-nuclear cells at 1 uM after 24 hrs by propidium iodide staining-based flow cytometric analysis (reference value: 5%); assay type: functional; conditions: SW-620
[10] = target: Non-receptor tyrosine-protein kinase TYK2 (Homo sapiens, UniProt P29597); assay: Inhibition of N-terminal 6His-tagged human recombinant Tyk2
[11] = Cell cycle arrest in human SW620 cells assessed as accumulation at S phase at 1 uM after 24 hrs by propidium iodide staining-based flow cytometric analysis (reference value: 13.9%); assay type: functional; conditions: SW-620
[12] = Cell cycle arrest in human SW620 cells assessed as accumulation at G1 phase at 1 uM after 24 hrs by propidium iodide staining-based flow cytometric analysis (reference value: 61.4%); assay type: functional; conditions: SW-620
[13] = target: T2, Tyrosine-protein kinase JAK2; assay: Inhibition of N-terminal GST-fused recombinant JAK2 (831 to 1132 residues) (unknown origin) expressed in insect cells using 5FAM-GEEPLYWSFPAKKK-NH2 as substrate by microfluidic capillary electrophoresis method
[14] = Cell cycle arrest in human SW620 cells assessed as accumulation at G1 phase at 10 uM after 24 hrs by propidium iodide staining-based flow cytometric analysis (reference value: 61.4%); assay type: functional; conditions: SW-620
[15] = Cell cycle arrest in human SW620 cells assessed as accumulation at Sub G1 phase at 10 uM after 24 hrs by propidium iodide staining-based flow cytometric analysis (reference value: 1.6%); assay type: functional; conditions: SW-620
[16] = Cell cycle arrest in human SW620 cells assessed as accumulation at G2/M phase at 10 uM after 24 hrs by propidium iodide staining-based flow cytometric analysis (reference value: 17.4%); assay type: functional; conditions: SW-620
[17] = Cell cycle arrest in human SW620 cells assessed as multi-nuclear cells at 10 uM after 24 hrs by propidium iodide staining-based flow cytometric analysis (reference value: 5%); assay type: functional; conditions: SW-620
[18] = target: T1, Tyrosine-protein kinase JAK1; assay: Inhibition of JAK1 in human NCI-H1975 cells assessed as reduction in STAT3 phosphorylation at 0.003 to 3 uM after 2 hrs by Western blot analysis; assay type: cell-based
[19] = tested on: Mus musculus; assay: Inhibition of JAK1-mediated STAT3 phosphorylation in human NCI-H1975 cells xenografted in NCr nude mouse at 200 mg/kg, po administered as single dose after 1.5 hrs by Western blot analysis; assay type: functional
[20] = target: T3, Tyrosine-protein kinase JAK3 (Homo sapiens, UniProt P52333); assay: Inhibition of N-terminal GST-fused recombinant JAK3 (781 to 1124 residues) (unknown origin) expressed in insect cells using 5FAM-GEEPLYWSFPAKKK-NH2 as substrate by microfluidic capillary electrophoresis method
T3 sequence (P52333 whole entry): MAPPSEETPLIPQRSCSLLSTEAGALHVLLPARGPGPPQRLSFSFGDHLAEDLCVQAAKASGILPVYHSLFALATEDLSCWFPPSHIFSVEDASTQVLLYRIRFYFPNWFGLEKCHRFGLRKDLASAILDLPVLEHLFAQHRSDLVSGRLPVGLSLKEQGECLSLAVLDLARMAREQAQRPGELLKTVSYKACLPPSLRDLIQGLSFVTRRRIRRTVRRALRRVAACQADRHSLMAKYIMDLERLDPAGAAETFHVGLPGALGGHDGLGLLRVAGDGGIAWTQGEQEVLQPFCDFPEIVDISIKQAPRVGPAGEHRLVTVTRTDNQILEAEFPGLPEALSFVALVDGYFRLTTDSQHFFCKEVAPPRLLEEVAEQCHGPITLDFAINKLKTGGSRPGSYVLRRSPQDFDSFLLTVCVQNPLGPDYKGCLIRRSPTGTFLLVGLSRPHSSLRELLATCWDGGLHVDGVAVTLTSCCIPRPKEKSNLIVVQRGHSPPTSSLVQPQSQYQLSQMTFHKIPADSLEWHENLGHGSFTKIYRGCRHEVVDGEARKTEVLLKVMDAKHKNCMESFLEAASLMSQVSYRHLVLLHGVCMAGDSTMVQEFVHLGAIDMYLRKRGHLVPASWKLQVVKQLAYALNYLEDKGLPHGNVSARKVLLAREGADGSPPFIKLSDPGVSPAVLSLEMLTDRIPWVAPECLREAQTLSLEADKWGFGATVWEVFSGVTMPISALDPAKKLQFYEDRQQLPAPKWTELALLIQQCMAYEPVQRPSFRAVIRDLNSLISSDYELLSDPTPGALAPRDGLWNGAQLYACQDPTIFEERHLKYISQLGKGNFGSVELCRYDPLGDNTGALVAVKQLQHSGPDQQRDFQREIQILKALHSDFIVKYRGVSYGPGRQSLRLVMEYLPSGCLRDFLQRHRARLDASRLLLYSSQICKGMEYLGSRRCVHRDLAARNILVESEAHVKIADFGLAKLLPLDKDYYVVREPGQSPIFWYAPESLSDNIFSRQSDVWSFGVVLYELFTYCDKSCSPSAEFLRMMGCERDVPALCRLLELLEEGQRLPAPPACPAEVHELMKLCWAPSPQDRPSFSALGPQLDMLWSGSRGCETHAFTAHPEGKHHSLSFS

[21] = target: Aurora kinase B (Homo sapiens, UniProt Q96GD4); assay: Inhibition of GST-INCENP activated N-terminal 6His-tagged human recombinant full length Aurora B (1 to 344 residues) expressed in baculovirus expression system using 5FAM-LRRASLG as substrate by microfluidic capillary electrophoresis method
Aurora kinase B, sequence (Q96GD4 whole entry, the tested form may be a part): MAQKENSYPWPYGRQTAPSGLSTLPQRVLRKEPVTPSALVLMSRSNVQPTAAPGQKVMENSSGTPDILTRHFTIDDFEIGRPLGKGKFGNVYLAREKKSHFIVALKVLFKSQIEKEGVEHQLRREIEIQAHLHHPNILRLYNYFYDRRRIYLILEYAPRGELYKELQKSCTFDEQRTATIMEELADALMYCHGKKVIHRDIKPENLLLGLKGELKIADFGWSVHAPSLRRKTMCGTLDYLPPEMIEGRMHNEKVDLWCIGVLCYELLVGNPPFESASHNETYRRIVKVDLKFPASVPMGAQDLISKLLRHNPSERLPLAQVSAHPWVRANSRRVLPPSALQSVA

T1 sequence (P23458 whole entry): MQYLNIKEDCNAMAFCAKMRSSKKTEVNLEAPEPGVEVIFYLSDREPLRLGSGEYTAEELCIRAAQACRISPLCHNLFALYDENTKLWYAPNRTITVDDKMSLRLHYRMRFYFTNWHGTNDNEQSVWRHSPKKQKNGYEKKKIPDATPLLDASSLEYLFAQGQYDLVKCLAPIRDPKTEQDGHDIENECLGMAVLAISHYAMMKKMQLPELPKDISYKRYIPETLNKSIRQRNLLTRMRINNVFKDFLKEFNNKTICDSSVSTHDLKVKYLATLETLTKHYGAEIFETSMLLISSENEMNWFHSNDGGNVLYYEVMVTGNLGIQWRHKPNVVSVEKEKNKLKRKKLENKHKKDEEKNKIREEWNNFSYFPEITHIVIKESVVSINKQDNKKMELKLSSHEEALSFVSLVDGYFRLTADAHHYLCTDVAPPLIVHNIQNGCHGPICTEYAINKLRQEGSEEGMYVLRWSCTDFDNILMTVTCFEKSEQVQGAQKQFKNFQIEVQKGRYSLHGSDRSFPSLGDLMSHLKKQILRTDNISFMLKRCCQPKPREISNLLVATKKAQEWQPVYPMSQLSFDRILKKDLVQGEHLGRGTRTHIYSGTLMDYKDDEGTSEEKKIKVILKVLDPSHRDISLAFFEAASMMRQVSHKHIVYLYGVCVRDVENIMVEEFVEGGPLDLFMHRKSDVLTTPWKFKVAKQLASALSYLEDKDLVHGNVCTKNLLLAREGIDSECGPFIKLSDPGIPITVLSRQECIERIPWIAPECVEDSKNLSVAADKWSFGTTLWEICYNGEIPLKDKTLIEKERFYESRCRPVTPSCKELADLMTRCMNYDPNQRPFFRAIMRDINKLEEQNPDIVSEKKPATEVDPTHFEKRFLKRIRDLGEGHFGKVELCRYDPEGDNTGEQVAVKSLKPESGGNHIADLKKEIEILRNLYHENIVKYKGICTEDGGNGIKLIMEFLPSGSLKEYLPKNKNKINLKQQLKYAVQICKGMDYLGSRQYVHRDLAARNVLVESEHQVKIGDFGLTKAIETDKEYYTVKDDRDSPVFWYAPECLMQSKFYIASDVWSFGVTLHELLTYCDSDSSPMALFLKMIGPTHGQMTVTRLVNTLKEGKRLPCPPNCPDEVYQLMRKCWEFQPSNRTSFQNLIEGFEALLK
T2 sequence (O60674 whole entry, the tested form may be a part): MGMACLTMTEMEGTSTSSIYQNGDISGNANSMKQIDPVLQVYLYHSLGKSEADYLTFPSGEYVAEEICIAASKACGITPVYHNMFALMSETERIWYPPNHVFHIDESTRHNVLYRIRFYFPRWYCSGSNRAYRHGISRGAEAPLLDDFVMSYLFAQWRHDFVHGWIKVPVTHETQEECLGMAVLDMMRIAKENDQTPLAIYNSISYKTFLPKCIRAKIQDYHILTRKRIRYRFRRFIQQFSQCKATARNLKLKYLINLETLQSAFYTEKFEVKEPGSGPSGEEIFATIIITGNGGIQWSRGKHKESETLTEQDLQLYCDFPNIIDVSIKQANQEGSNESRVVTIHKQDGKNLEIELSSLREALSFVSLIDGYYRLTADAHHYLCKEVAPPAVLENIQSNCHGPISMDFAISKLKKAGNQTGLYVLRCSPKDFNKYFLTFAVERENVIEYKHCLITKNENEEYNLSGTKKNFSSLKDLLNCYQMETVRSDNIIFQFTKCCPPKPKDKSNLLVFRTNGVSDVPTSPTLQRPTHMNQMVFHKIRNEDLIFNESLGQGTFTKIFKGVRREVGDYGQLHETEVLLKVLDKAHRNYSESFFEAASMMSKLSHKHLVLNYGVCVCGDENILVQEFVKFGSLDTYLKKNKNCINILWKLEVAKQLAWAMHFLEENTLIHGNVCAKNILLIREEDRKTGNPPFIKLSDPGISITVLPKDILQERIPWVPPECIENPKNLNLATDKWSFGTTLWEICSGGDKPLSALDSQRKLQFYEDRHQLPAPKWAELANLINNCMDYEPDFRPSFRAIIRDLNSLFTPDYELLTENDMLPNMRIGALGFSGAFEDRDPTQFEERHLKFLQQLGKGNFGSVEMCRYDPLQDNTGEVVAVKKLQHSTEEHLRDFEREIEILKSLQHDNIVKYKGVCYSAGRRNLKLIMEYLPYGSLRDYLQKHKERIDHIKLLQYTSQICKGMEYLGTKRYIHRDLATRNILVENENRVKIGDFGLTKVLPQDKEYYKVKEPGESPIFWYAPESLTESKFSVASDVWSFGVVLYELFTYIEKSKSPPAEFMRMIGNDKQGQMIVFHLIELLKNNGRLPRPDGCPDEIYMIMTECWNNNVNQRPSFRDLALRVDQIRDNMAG
Non-receptor tyrosine-protein kinase TYK2, sequence (P29597 whole entry): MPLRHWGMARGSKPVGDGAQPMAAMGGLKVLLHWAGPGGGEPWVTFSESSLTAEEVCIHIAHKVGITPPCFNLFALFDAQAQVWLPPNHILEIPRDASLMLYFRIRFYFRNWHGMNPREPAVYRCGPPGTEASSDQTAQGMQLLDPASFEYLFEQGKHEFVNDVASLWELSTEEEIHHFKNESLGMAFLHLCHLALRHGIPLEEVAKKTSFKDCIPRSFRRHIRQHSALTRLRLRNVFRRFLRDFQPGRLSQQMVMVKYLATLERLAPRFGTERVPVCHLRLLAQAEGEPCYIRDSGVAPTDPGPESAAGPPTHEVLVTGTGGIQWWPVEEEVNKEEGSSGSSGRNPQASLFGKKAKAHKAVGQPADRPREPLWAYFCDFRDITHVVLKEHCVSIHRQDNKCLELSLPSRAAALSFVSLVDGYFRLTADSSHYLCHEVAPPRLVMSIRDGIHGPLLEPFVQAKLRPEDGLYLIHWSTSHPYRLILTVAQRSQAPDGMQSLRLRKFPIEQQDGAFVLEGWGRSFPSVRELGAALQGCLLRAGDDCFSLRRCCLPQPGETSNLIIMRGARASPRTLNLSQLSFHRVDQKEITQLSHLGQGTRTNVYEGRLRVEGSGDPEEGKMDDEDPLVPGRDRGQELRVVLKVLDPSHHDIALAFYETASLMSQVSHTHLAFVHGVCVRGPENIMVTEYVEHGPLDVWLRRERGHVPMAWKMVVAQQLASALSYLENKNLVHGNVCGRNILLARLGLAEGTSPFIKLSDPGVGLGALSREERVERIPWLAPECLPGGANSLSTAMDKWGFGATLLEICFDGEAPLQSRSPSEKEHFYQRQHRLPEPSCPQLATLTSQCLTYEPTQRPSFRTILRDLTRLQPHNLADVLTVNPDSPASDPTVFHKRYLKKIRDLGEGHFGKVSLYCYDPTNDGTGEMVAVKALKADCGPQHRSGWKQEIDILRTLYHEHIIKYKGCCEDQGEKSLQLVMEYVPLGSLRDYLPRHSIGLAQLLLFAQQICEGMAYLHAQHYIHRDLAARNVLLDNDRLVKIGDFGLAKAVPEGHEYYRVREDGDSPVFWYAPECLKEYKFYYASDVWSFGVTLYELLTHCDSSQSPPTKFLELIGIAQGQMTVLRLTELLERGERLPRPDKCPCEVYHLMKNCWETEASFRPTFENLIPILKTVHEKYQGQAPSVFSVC

For `COc1cc(F)c(-c2nc3c(NCC4CCNCC4)c(Cl)cnc3[nH]2)cc1OC`, the Activity [1] was 7%, the Activity [2] was 27% and the IC50 [3] was 39 nM. For the same compound, the Activity [4] was 2.5%, the inhibition [5] was “inactive” and the IC50 [6] was 114 nM. For the same compound, the inhibition [7] was “inactive”, the IC50 [8] was 22 nM and the Activity [9] was 7.9%. It also gave an IC50 [10] of 28000 nM, an Activity [11] of 6.5% and an Activity [12] of 56.1%. For the same compound, the IC50 [13] was > 22000 nM, the Activity [14] was 30.3% and the Activity [15] was 10.8%. The Activity [16] was 38.9%, the Activity [17] was 13.1% and the inhibition [18] was “Active”. It also gave an inhibition in vivo at 200 mg/kg [19] of 80%, an IC50 [20] of 8300 nM and an IC50 [21] of 132 nM.
